Source: PMC6148246, “HS-1371, a novel kinase inhibitor of RIP3-mediated necroptosis” (Experimental & Molecular Medicine, 2018)

Tests used:
RIP3 [1] = target: T1, RIP3 (Homo sapiens, UniProt Q9Y572); test: Basal S227 auto-phosphorylation of RIP3 in HT-29 cells (immunoblot); assay type: cell-based; set-up: RIP3-expressing HT-29 cells; endogenous in cells; host or cells: HT-29; conditions: 10 μM, 9 h
Description: (§1) Cells were rinsed in cold phosphate-buffered saline (PBS) and lysed in M2 buffer containing 20 mM Tris at pH 7, 0.5% NP-40, 250 mM NaCl, 3 mM EDTA, 3 mM EGTA, 2 mM DTT, 0.5 mM PMSF, 20 mM β-glycerol phosphate, 1 mM sodium vanadate, and 1 μg/mL leupeptin. The cell extracts were subjected to western blot analysis. For immunoprecipitation, lysates were mixed and precipitated with antibody and protein A-agarose beads overnight or for 4 h at 4 °C. Bound proteins were removed by boiling in SDS and resolved by SDS-PAGE, and immunoblotting was visualized by enhanced chemiluminescence (ECL, Amersham).
RIP3 kinase activity is essential for TNF-induced necroptosis, and human S227 auto-phosphorylation sites of RIP3 are required for the interaction of RIP3 with its substrate MLKL[13],[14], which is indispensable for downstream necroptotic cell death signaling. To test the possible effects of the RIP3 inhibitors on necroptosis, HT-29 cells were treated with the kinase inhibitors, and RIP3 kinase activity was determined by examining its phosphorylation status.
(§2) Fig. 2 Novel inhibitors can block RIP3 S227 phosphorylation. a Western blotting showing various kinase inhibitor effects on RIP3 S227 auto-phosphorylation. HT-29 cells were treated with four tested kinase inhibitors (1308, 1336, 1338, and 1371, 10 μM) for 9 h. As a control, KK5101 (Trk alpha inhibitor) and HS829 (IKK beta inhibitor) were also treated at a concentration of 10 μM for 9 h. Prototypical necroptosis stimuli (TNF + zVAD + either cycloheximide or SMAC mimetic; hereafter referred to as TCZ or TSZ) were applied for 6 h. […] HT-29 cells were treated with 4 tested kinase inhibitors for 24 h, and cell viability was analyzed by MTT assay or phase-contrast microscopy. […] HT-29 cells were pretreated with necrostatin-1 (Nec-1, 40 μM), dabrafenib (DAB, 10 μM) or necrosulfonamide (NSA, 1 μM) for 2 h and then treated with TSZ for 6 h. […] HT-29 cells were pretreated with four tested kinase inhibitors for 2 h and then treated with TSZ for 6 h. Cell lysates were analyzed by immunoblotting. f HT-29 cells were pretreated with Nec-1 (40 μM), DAB (5 μM) or HS-1371 (5 μM) for 2 h and then treated with TSZ for 4 h. Cell lysates were immunoprecipitated with anti-RIP3 antibody. Immunoprecipitates and total lysates were analyzed by Western blotting

p-MLKL = test: Phospho-MLKL immunofluorescence in HT-29 cells; assay type: cell-based, human; conditions: HT-29, immunofluorescence
Description: HT-29 cells were fixed in 4% paraformaldehyde for 10 min. To stain phospho-MLKL, cells were permeabilized with 0.25% Triton X-100 for 10 min. After incubation in a blocking buffer (10% fetal bovine serum in DPBS) for 30 min, the primary antibody to phospho-MLKL was incubated overnight at 4 °C, and FITC-conjugated secondary antibody (goat anti-rabbit IgG, 1:250, dilution, Invitrogen) was incubated for 1 h at room temperature. A mounting medium containing DAPI (VECTASHIELD, Cat No. 94010, Vector Laboratories) was used for counterstaining. Representative images were taken by confocal microscope.
HT-29 cells were pretreated with four tested inhibitors for 2 h and then treated with TSZ (6 h for immunoblotting, 24 h for cell death assay). Cell lysates were analyzed by immunoblotting, and cell viability was analyzed by MTT assay or phase-contrast microscopy. The results are presented as the means ± SEM. *P < 0.05, **P < 0.01, ***P < 0.001. b Protection of necroptosis by HS-1371 treatment is similar with dabrafenib, which abolished downstream events. HT-29 cells were pretreated with various necroptosis inhibitors and HS-1371 before TSZ treatment. Cell lysates were analyzed by immunoblotting, and cell viability was analyzed by MTT assay (left panel). Cells were stained with phospho-MLKL antibody and analyzed by confocal fluorescence microscopy (middle panel), and cell death was further analyzed by FACS analysis after PI staining (right panel). c HS-1371 protects cells from TNF-induced necroptosis in a dose-dependent manner. HT-29 cells were pretreated with indicated concentrations of HS-1371 and then treated with TSZ (6 h for immunoblotting, 24 h for cell death assay). Cell lysates were analyzed by immunoblotting, and cell viability was analyzed by MTT assay or phase-contrast microscopy. The results are presented as means ± SEM. *P < 0.05, **P < 0.01, ***P < 0.001 TEXT PRINTED IN THE PICTURE: (b) TSZ: 20.7 | (b) TSZ + Nec-1: 5.8 | (b) TSZ + DAB: 5.5 | (b) TSZ + 1371: 6.8 DOUBTS OF THE COPYIST ABOUT THIS PICTURE: Panel b, flow cytometry plots: the red gate numbers are printed without a measure or unit, so none is given / Panel b: the 'Untreated' control plot prints 7.7; left out because it is not a substance

RIP3 [2] = target: T1, RIP3; test: TNF (TSZ)-induced RIP3 and MLKL phosphorylation in HT-29 cells (immunoblot); assay type: cell-based; set-up: RIP3-expressing HT-29 cells; endogenous in cells; host or cells: HT-29; conditions: HT-29; Nec-1 40 μM, DAB 10 μM, NSA 1 μM pretreated 2 h, TSZ 6 h
Description: as §1, §2
(§3) TNFα Smac mimetic and the caspase inhibitor zVAD (hereafter referred to as TSZ) is a classical combination that is used to induce RIP3-mediated necroptotic cell death[10],[32]. We first verified that three established pharmacological inhibitors of necroptosis, necrostatin-1 (Nec-1), necrosulfonamide (NSA), and dabrafenib (DAB) could block TNF-induced necroptosis (Fig. 2d). Of these inhibitors, Nec-1 inhibits RIP1 kinase activity[33],[34], DAB inhibits RIP3 kinase activity, and NSA inhibits MLKL functions downstream of RIP3 phosphorylation. […] Next, we tested whether these four inhibitors would inhibit TNF-induced necroptosis signaling by blocking RIP3 kinase activity. […] The effect of HS-1371 on RIP3 kinase activity was compared with another RIP3 inhibitor, GSK’872[16].

RIP3 [3] = target: T1, RIP3; test: S227 auto-phosphorylation of overexpressed RIP3 in 293T cells (immunoblot); assay type: cell-based; conditions: 293T cells transfected with Flag-hRIP3
Excerpt: as §3, with “GSK’872[16]. […]” for “GSK’872[16].”
(a) Overexpression of RIP3 could induce S227 phosphorylation without stimuli. […] After cells were harvested, cell lysates were analyzed by […]
kinase inhibitor. HT-29 cells were treated with HS -1371 or GSK’872 indicated concentrations for 9 h, and cell lysates were analyzed by immunoblotting.
(c) Cytotoxicity of HS-1371 was compared with GSK’872. HT-29 cells were treated with 2 kinase inhibitors for 24 h and cell viability was analyzed by MTT assay.
(d) Inhibition of MLKL phosphorylation by HS-1371 was compared with other two RIP3 kinases inhibitors, DAB (5 μM) and GSK’872 (5 μM). […] Cell lysates were analyzed by […]

T1 sequence (Q9Y572 whole entry): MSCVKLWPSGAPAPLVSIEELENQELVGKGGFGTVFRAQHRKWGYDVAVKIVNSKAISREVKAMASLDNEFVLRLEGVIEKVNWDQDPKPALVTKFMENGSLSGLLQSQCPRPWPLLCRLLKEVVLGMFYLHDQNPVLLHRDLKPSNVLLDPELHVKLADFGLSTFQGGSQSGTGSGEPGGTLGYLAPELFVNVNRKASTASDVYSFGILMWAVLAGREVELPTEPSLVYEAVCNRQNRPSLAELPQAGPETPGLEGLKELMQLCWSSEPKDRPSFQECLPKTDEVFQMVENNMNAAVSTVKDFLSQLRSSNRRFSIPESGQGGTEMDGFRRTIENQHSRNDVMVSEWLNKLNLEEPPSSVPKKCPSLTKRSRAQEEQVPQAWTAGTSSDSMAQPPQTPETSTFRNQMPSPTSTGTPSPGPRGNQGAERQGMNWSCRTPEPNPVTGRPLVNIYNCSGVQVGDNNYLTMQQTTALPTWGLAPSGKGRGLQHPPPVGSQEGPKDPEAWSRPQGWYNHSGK

Structure (SMILES)	effect on S227 auto-phosphorylation of RIP3 at the basal level (RIP3 [1])	p-MLKL detection / translocation after TSZ (p-MLKL)	block of TNF-induced necroptosis (RIP3 phosphorylation) (RIP3 [2])	S227 auto-phosphorylation of overexpressed RIP3 (RIP3 [3])
Fc1ccccc1Nc1ccnc2cc(-c3cnn(C4CCNCC4)c3)ccc12 [HS-1308]	inhibitory effect	–	–	–
COc1nccnc1NS(=O)(=O)c1ccc(NC(=O)/C=C/c2ccc([N+](=O)[O-])s2)cc1 [necrosulfonamide, reference compound]	–	could not translocate into the plasma membrane	could block	–
CN1C(=O)C(Cc2c[nH]c3ccccc23)NC1=S (stereo not shown) [necrostatin-1, reference compound]	–	no detection of p-MLKL	could block	–
CC(C)(C)c1nc(-c2cccc(NS(=O)(=O)c3c(F)cccc3F)c2F)c(-c2ccnc(N)n2)s1 [dabrafenib]	–	no detection of p-MLKL	could block	inhibited
Fc1cccc(Oc2ccnc3cc(-c4cnn(C5CCNCC5)c4)ccc23)c1 [HS-1338]	inhibitory effect	–	–	–
Fc1ccc(Oc2ccnc3cc(-c4cnn(C5CCNCC5)c4)ccc23)c(F)c1 [HS-1336]	inhibitory effect	–	–	–
